From PubChem BioAssay AID248 (DTP/NCI, 2004)
“And” between values parts separate entries of the source, which are not always exact repeats. Identical values can stand only once. Inconclusive results and toxic doses are left out. Cut-off read from the data, not from the text of the source: active = T/C of 150% or more; inactive = T/C below 125%. Square brackets hold non-standard residues; d marks the D form. Peptide text beside a SMILES is read from it. ξ: configuration not given here. ξF = NC(Cc1ccccc1)C(=O)O

Tested on: L1210 leukemia ip in BDF1 mice, survival T/C
Test: NCI In Vivo Anticancer Drug Screen. Data for tumor model L1210 Leukemia (intraperitoneal) in B6D2F1 (BDF1) mice
Conditions: endpoint: mean survival time, higher = longer survival
Procedure, shortened: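 Read-out is survival time, reported as the treated-group measurement over the vehicle-control measurement.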

[1] = dose: 100.0 mg/kg/injection, schedule: Q04DX002 (ip), vehicle: saline with Tween-80
[2] = dose: 100.0 mg/kg/injection, schedule: Q04DX003 (ip), vehicle: saline
[3] = dose: 200.0 mg/kg/injection, schedule: Q04DX002 (ip), vehicle: saline with Tween-80
[4] = dose: 200.0 mg/kg/injection, schedule: Q04DX003 (ip), vehicle: saline
[5] = dose: 400.0 mg/kg/injection, schedule: Q04DX002 (ip), vehicle: saline with Tween-80
[6] = dose: 400.0 mg/kg/injection, schedule: Q04DX003 (ip), vehicle: saline
[7] = dose: 100.0 mg/kg/injection, schedule: Q01DX009 (ip), vehicle: saline
[8] = dose: 200.0 mg/kg/injection, schedule: Q01DX009 (ip), vehicle: saline
[9] = dose: 400.0 mg/kg/injection, schedule: Q01DX009 (ip), vehicle: saline
[10] = dose: 75.0 mg/kg/injection, schedule: Q01DX001 (ip), vehicle: carboxymethylcellulose (CMC)
[11] = dose: 150.0 mg/kg/injection, schedule: Q01DX001 (ip), vehicle: carboxymethylcellulose (CMC)
[12] = dose: 300.0 mg/kg/injection, schedule: Q01DX001 (ip), vehicle: carboxymethylcellulose (CMC)
[13] = dose: 100.0 mg/kg/injection, schedule: Q01DX009 (ip), vehicle: Klucel (hydroxypropylcellulose) (HPC)
[14] = dose: 100.0 mg/kg/injection, schedule: Q04DX003 (ip), vehicle: Klucel (hydroxypropylcellulose) (HPC)
[15] = dose: 200.0 mg/kg/injection, schedule: Q01DX009 (ip), vehicle: Klucel (hydroxypropylcellulose) (HPC)
[16] = dose: 200.0 mg/kg/injection, schedule: Q04DX003 (ip), vehicle: Klucel (hydroxypropylcellulose) (HPC)
[17] = dose: 400.0 mg/kg/injection, schedule: Q01DX009 (ip), vehicle: Klucel (hydroxypropylcellulose) (HPC)
[18] = dose: 400.0 mg/kg/injection, schedule: Q04DX003 (ip), vehicle: Klucel (hydroxypropylcellulose) (HPC)
[19] = dose: 100.0 mg/kg/injection, schedule: Q01DX009 (ip), vehicle: saline with Tween-80
[20] = dose: 200.0 mg/kg/injection, schedule: Q01DX009 (ip), vehicle: saline with Tween-80

Measured: T/C

CN=Cc1ccc([N+](=O)[O-])cc1
inactive: dose: 75.0 mg/kg/injection, schedule: Q01DX001 (ip), vehicle: Klucel (hydroxypropylcellulose) (HPC) 91 % of control | dose: 75.0 mg/kg/injection, schedule: Q01DX009 (ip), vehicle: Klucel (hydroxypropylcellulose) (HPC) 96 % of control | dose: 150.0 mg/kg/injection, schedule: Q01DX001 (ip), vehicle: Klucel (hydroxypropylcellulose) (HPC) 91 % of control | dose: 150.0 mg/kg/injection, schedule: Q01DX009 (ip), vehicle: Klucel (hydroxypropylcellulose) (HPC) 105 % of control | dose: 300.0 mg/kg/injection, schedule: Q01DX001 (ip), vehicle: Klucel (hydroxypropylcellulose) (HPC) 96 % of control | dose: 300.0 mg/kg/injection, schedule: Q01DX009 (ip), vehicle: Klucel (hydroxypropylcellulose) (HPC) 95 % of control

[Cl][Pt+2][Cl].[NH-]C1CCCCC1.[NH-]C1CCCCC1
inactive: dose: 25.0 mg/kg/injection, schedule: Q04DX003 (ip), vehicle: saline 100 % of control | dose: 40.0 mg/kg/injection, schedule: Q04DX003 (ip), vehicle: Klucel (hydroxypropylcellulose) (HPC) 103 % of control | dose: 50.0 mg/kg/injection, schedule: Q04DX003 (ip), vehicle: saline 110 % of control | dose: 80.0 mg/kg/injection, schedule: Q04DX003 (ip), vehicle: Klucel (hydroxypropylcellulose) (HPC) 103 % of control | [1] 94 % of control | [2] 103 % of control | dose: 160.0 mg/kg/injection, schedule: Q04DX003 (ip), vehicle: Klucel (hydroxypropylcellulose) (HPC) 101 % of control | [3] 117 % of control | [4] 108 % of control | dose: 320.0 mg/kg/injection, schedule: Q04DX003 (ip), vehicle: Klucel (hydroxypropylcellulose) (HPC) 106 % of control | [5] 102 % of control | [6] 108 % of control | dose: 640.0 mg/kg/injection, schedule: Q04DX003 (ip), vehicle: Klucel (hydroxypropylcellulose) (HPC) 102 % of control

CCOC(=O)/C(C#N)=C/c1cccn1Cc1ccc2ccccc2c1
inactive: [1] 101 % of control | [3] 90 % of control | [5] 90 % of control

NC(Cc1ccccc1)C(=O)NCC(=O)O (stereo not drawn) (H-[ξF]-Gly-OH)
inactive: [7] 105 % of control | [2] 98 % of control | [8] 105 % of control | [4] 97 % of control | [9] 102 % of control | [6] 97 % of control

COc1cc([N+](=O)[O-])c2nc(C)ccc2c1[N+](=O)[O-]
inactive: dose: 50.0 mg/kg/injection, schedule: Q01DX001 (ip), vehicle: carboxymethylcellulose (CMC) 100 % of control | dose: 100.0 mg/kg/injection, schedule: Q01DX001 (ip), vehicle: carboxymethylcellulose (CMC) 100 % of control | dose: 200.0 mg/kg/injection, schedule: Q01DX001 (ip), vehicle: carboxymethylcellulose (CMC) 100 % of control | dose: 400.0 mg/kg/injection, schedule: Q01DX001 (ip), vehicle: carboxymethylcellulose (CMC) 100 % of control

c1ccc(-c2c[nH]c(-c3ccccc3)c2-c2ccccc2)cc1
inactive: [10] 93 % of control | [11] 93 % of control | [12] 93 % of control

O=C(Oc1cc(OC(=O)c2ccccc2)cc(OC(=O)c2ccccc2)c1)c1ccccc1
inactive: [13] 95 % of control | [14] 100 % of control | [15] 95 % of control | [16] 100 % of control | [17] 95 % of control | [18] 100 % of control

CC(O)c1cccnc1 (stereo not drawn)
inactive: dose: 10.0 mg/kg/injection, schedule: Q01DX009 (ip), vehicle: saline 99 % of control | dose: 10.0 mg/kg/injection, schedule: Q04DX003 (ip), vehicle: saline 97 % of control | dose: 20.0 mg/kg/injection, schedule: Q01DX009 (ip), vehicle: saline 99 % of control | dose: 20.0 mg/kg/injection, schedule: Q04DX003 (ip), vehicle: saline 105 % of control | dose: 40.0 mg/kg/injection, schedule: Q01DX009 (ip), vehicle: saline 97 % of control | dose: 40.0 mg/kg/injection, schedule: Q04DX003 (ip), vehicle: saline 100 % of control

COC(=O)CS(=O)(=O)C(C)(C)C(=O)c1ccccc1
inactive: dose: 37.5 mg/kg/injection, schedule: Q01DX009 (ip), vehicle: saline 96 % of control | dose: 75.0 mg/kg/injection, schedule: Q01DX009 (ip), vehicle: saline 92 % of control | dose: 150.0 mg/kg/injection, schedule: Q01DX009 (ip), vehicle: saline 100 % of control | dose: 300.0 mg/kg/injection, schedule: Q01DX009 (ip), vehicle: saline 94 % of control

Cc1cc(/C=C\c2ccccc2Cl)nc2cc(Cl)ccc12
inactive: [2] 102 % of control | [4] 98 % of control | [6] 102 % of control

Cc1ccc(S(=O)(=O)Nc2ccc3ncsc3c2[N+](=O)[O-])cc1
inactive: [19] 108 % of control | dose: 100.0 mg/kg/injection, schedule: Q04DX003 (ip), vehicle: saline with Tween-80 97 % of control | [20] 93 % of control | dose: 200.0 mg/kg/injection, schedule: Q04DX003 (ip), vehicle: saline with Tween-80 102 % of control | dose: 400.0 mg/kg/injection, schedule: Q01DX009 (ip), vehicle: saline with Tween-80 103 % of control | dose: 400.0 mg/kg/injection, schedule: Q04DX003 (ip), vehicle: saline with Tween-80 102 % of control

O=[N+]([O-])c1cc(Cl)c(Cl)cc1[N+](=O)[O-]
inactive: dose: 50.0 mg/kg/injection, schedule: Q04DX002 (ip), vehicle: Klucel (hydroxypropylcellulose) (HPC) 106 % of control | dose: 75.0 mg/kg/injection, schedule: Q04DX002 (ip), vehicle: Klucel (hydroxypropylcellulose) (HPC) 103 % of control | dose: 150.0 mg/kg/injection, schedule: Q04DX002 (ip), vehicle: Klucel (hydroxypropylcellulose) (HPC) 101 % of control and 110 % of control

FC(F)(F)C(F)(F)C1=NS1(C(F)(C(F)(F)F)C(F)(F)F)C(F)(C(F)(F)F)C(F)(F)F
inactive: dose: 100.0 mg/kg/injection, schedule: Q01DX001 (ip), vehicle: acetone 94 % of control | dose: 200.0 mg/kg/injection, schedule: Q01DX001 (ip), vehicle: acetone 103 % of control | dose: 400.0 mg/kg/injection, schedule: Q01DX001 (ip), vehicle: acetone 101 % of control

NNc1ccc(-c2ccccc2)cc1
inactive: [10] 95 % of control | [11] 92 % of control | [12] 97 % of control

CC(=O)OCC(O)CO (stereo not drawn)
inactive: [7] 102 % of control | [8] 96 % of control | [9] 102 % of control

CC(=O)Oc1ccc2c(C)cc(=O)oc2c1
inactive: dose: 100.0 mg/kg/injection, schedule: Q01DX001 (ip), vehicle: saline 100 % of control | dose: 200.0 mg/kg/injection, schedule: Q01DX001 (ip), vehicle: saline 109 % of control

O=C1OCCN1/N=C/c1ccc([N+](=O)[O-])o1
inactive: [13] 107 % of control | [14] 105 % of control | [15] 110 % of control | [16] 105 % of control | [17] 97 % of control | [18] 106 % of control

Cc1ccc(C)c(NC(=O)c2ccccc2Cl)c1
inactive: [13] 115 % of control | [14] 102 % of control | [15] 120 % of control | [16] 100 % of control | [17] 120 % of control | [18] 97 % of control

OCC1OC(n2cc(I)c3cncnc32)C(O)C1O (stereo not drawn)
inactive: dose: 12.5 mg/kg/injection, schedule: Q01DX005 (ip), vehicle: saline 102 % of control | dose: 25.0 mg/kg/injection, schedule: Q01DX005 (ip), vehicle: saline 106 % of control | dose: 50.0 mg/kg/injection, schedule: Q01DX005 (ip), vehicle: saline 106 % of control

COc1ccc(NC(=O)Oc2ccc(Cl)cc2C)c(OC)c1
inactive: [13] 104 % of control | [15] 108 % of control | [17] 108 % of control

COc1ccc(S(=O)(=O)Nc2cc([N+](=O)[O-])ccc2C)cc1
inactive: [13] 100 % of control | [15] 100 % of control | [17] 98 % of control

CC1CCC2(O)C3(C)CC4(O)OC2(C1O)C1(O)C3(O)C(OC(=O)c2ccc[nH]2)C(O)(C(C)C)C41C (stereo not drawn)
inactive: dose: 0.25 mg/kg/injection, schedule: Q01DX001 (ip), vehicle: carboxymethylcellulose (CMC) 93 % of control

CC1CC2(C)C(CC1=O)CC(C)C1C2CCC2(C)C1CCC2(C)O (stereo not drawn)
inactive: [19] 90 % of control | [20] 90 % of control
